Patent US20160296628A1, “NANOPARTICLE DELIVERY SYSTEMS FOR CYTOLYTIC PEPTIDE PRODRUGS” (Washington University, priority 2015, published 2016)

Key:
[1] = system: 2F2B endothelial cells; test: XTT cytotoxicity assay, 2F2B endothelial cells; format: cell-based; conditions: 3 hours at 37° C., FIGS. 1A-1C
Procedure: (§1) The conjugate was compared to melittin and to melittin coupled only to linker in order to determine toxicity to endothelial cells and macrophages, as well as hemolysis. For assessment of cytotoxicity, 2F2B endothelial cells (CRL-2168; American Type Culture Collection, Manassas, Va.) or RAW 264.7 macrophages (TIB-71; American Type Culture Collection, Manassas, Va.) were plated in a 96-well plate at a concentration of 15,000 cells/well and allowed to attach overnight. The peptide of interest was then added and incubated with the cells for 3 hours at 37° C. Following this incubation, the agent of interest was removed, cells were washed with phosphate-buffered saline, and cell viability was determined by XTT assay (Biotium, Hayward, Calif.). This assay measures the ability of cellular oxidoreductases to reduce the XTT reagent, resulting in a colored product. Briefly, cells were incubated with the activated XTT reagent for 3 hours at 37° C. with shaking at 200 rpm. The absorbance of each well at 450 nm was then measured using a Bio-Rad Model 550 plate reader (Bio-Rad Laboratories, Hercules, Calif.) with reference wavelength 630 nm.
(§2) To assess the impact of proteolytic cleavage on conjugate cytotoxicity and hemolytic activity, we repeated these experiments following cleavage of the conjugate by matrix metalloproteinase-9 (MMP-9). […]

[2] = system: RAW 264.7 macrophages; test: XTT cytotoxicity assay, RAW 264.7 macrophages; format: cell-based; conditions: 3 hours at 37° C., FIGS. 1A-1C
Procedure: as §1, §2

[3] = system: red blood cells; test: Hemolysis of red blood cells; format: cell-based, New Zealand white rabbits
Procedure: For hemolysis measurements, citrated whole blood was collected from New Zealand white rabbits and separated by centrifugation at 2000 rpm for 10 minutes. Red blood cells were washed five times with Dulbecco's phosphate buffered saline and stored at 4° C. until use. In each assay, the peptide of interest was added to 1×10^7 red blood cells in PBS and incubated at 37° C. for one hour. Afterwards, intact red blood cells were pelleted by centrifugation at 2000 rpm for 5 minutes and absorbance of the supernatant at 450 nm was measured using a Bio-Rad Model 550 plate reader (Bio-Rad Laboratories, Hercules, Calif.) with reference wavelength 630 nm To determine percent lysis, absorbance readings were normalized to lysis with 0.1% Triton™ X-100.
To assess the impact of proteolytic cleavage on conjugate cytotoxicity and hemolytic activity, we repeated these experiments following cleavage of the conjugate by matrix metalloproteinase-9 (MMP-9). Recombinant MMP-9 (R&D Systems, Minneapolis, Minn.) was activated by incubation with 1 mM 4-aminophenylmercuric acetate (APMA; Sigma-Aldrich, St. Louis, Mo.) at 37° C. for 2 hours. Free APMA was removed by dialysis against TCNBZ buffer (150 mM NaCl, 50 mM Tris, 10 mM CaCl2, 10 μM ZnCl2, 0.05% (w/v) Brij-35, pH 7.75) for 2 hours using a Slide-A-Lyzer MINI Dialysis Device, 2K MWCO (Thermo Scientific, Waltham, Mass.) with a dialysate change at 1 hour. […]

[4] = system: B16F10 melanoma cells; test: XTT cytotoxicity assay, B16F10 melanoma cells; format: cell-based; conditions: B16F10, MMP-9 added to culture media
[5] = Peptide loading onto perfluorocarbon nanoparticles; format: physicochemical; conditions: 1 mM peptide in phosphate-buffered saline, 4° C., 1 hour
Procedure: Conjugate-loaded nanoparticles were formulated by mixing known amounts of conjugate to non-targeted perfluorocarbon nanoparticles prepared in Example 1A and compared to melittin loading. Both melittin and the conjugate were produced by solid-phase peptide synthesis (melittin: GenScript, Piscataway, N.J.; conjugate: American Peptide Company, Sunnyvale, Calif.). Perfluorocarbon nanoparticles were incubated with 1 mM melittin or conjugate in phosphate-buffered saline at 4° C. for 1 hour. Nanoparticles were then isolated by centrifugation at 5,000 rpm for 15 minutes. The supernatant was removed and nanoparticles were washed three times with phosphate-buffered saline to remove free peptide.

CC[C@H](C)[C@H](NC(=O)CNC(=O)[C@H](CCC(N)=O)NC(=O)CNC(=O)[C@H](C)NC(=O)[C@@H](NC(=O)CNC(=O)[C@H](CCC(N)=O)NC(=O)[C@@H]1CCCN1C(=O)CNC(=O)[C@H](C)NC(=O)[C@H](CCC(=O)O)NC(=O)[C@@H]1CCCN1C(=O)[C@H](CC(=O)O)NC(=O)[C@H](C)NC(=O)[C@H](CCC(=O)O)NC(=O)[C@H](C)NC(=O)[C@H](CC(=O)O)NC(=O)[C@H](C)NC(=O)[C@H](CCC(=O)O)NC(=O)[C@H](C)NC(=O)[C@H](CCC(=O)O)NC(=O)[C@@H]1CCCN1C(=O)[C@H](CCC(=O)O)NC(=O)[C@@H]1CCCN1C(=O)[C@H](C)NC(=O)[C@@H]1CCCN1C(=O)[C@H](CCC(=O)O)NC(=O)[C@@H]1CCCN1)[C@@H](C)CC)C(=O)NCC(=O)N[C@@H](C)C(=O)N[C@H](C(=O)N[C@@H](CC(C)C)C(=O)N[C@@H](CCCCN)C(=O)N[C@H](C(=O)N[C@@H](CC(C)C)C(=O)N[C@H](C(=O)N[C@H](C(=O)NCC(=O)N[C@@H](CC(C)C)C(=O)N1CCC[C@H]1C(=O)N[C@@H](C)C(=O)N[C@@H](CC(C)C)C(=O)N[C@H](C(=O)N[C@@H](CO)C(=O)N[C@@H](Cc1c[nH]c2ccccc12)C(=O)N[C@H](C(=O)N[C@@H](CCCCN)C(=O)N[C@@H](CCCNC(=N)N)C(=O)N[C@@H](CCCCN)C(=O)N[C@@H](CCCNC(=N)N)C(=O)N[C@@H](CCC(N)=O)C(=O)N[C@@H](CCC(N)=O)C(N)=O)[C@@H](C)CC)[C@@H](C)CC)[C@@H](C)O)[C@@H](C)O)C(C)C)C(C)C [Pro-P2]
change of cytolytic activity / cytotoxicity relative to melittin [1]: reduced melittin cytotoxicity and hemolytic activity by at least two orders of magnitude | change of cytolytic activity / cytotoxicity relative to melittin [2]: reduced melittin cytotoxicity and hemolytic activity by at least two orders of magnitude | hemolytic activity after cleavage by MMP-9 ([3]; conjugate 200 μM cleaved with 20 nM MMP-9, 3 hours at 37° C.): restored | change of cytolytic / hemolytic activity relative to melittin ([3]; rabbit red blood cells in PBS, 37° C., one hour, FIGS. 1A-1C): reduced melittin cytotoxicity and hemolytic activity by at least two orders of magnitude | cytotoxicity to melanoma cells [4]: substantially cytotoxic

CC[C@H](C)[C@H](NC(=O)CN)C(=O)NCC(=O)N[C@@H](C)C(=O)N[C@H](C(=O)N[C@@H](CC(C)C)C(=O)N[C@@H](CCCCN)C(=O)N[C@H](C(=O)N[C@@H](CC(C)C)C(=O)N[C@H](C(=O)N[C@H](C(=O)NCC(=O)N[C@@H](CC(C)C)C(=O)N1CCC[C@H]1C(=O)N[C@@H](C)C(=O)N[C@@H](CC(C)C)C(=O)N[C@H](C(=O)N[C@@H](CO)C(=O)N[C@@H](Cc1c[nH]c2ccccc12)C(=O)N[C@H](C(=O)N[C@@H](CCCCN)C(=O)N[C@@H](CCCNC(=N)N)C(=O)N[C@@H](CCCCN)C(=O)N[C@@H](CCCNC(=N)N)C(=O)N[C@@H](CCC(N)=O)C(=O)N[C@@H](CCC(N)=O)C(N)=O)[C@@H](C)CC)[C@@H](C)CC)[C@@H](C)O)[C@@H](C)O)C(C)C)C(C)C [melittin]
loading, peptides per nanoparticle [5]: approximately 16,000 peptides per nanoparticle
